Patent US20090247616A1, “USE OF BENZO-FUSED HETEROCYLE SULFAMIDE DERIVATIVES FOR THE TREATMENT OF ANXIETY” (priority 2008, published 2009)

Tests used:
Male Rj:NMRI mice = assay: Elevated Plus Maze, Mouse (EPM); format: in vivo; conditions: 16 mg/kg p.o. (positive control)
Excerpt: Rodents avoid open spaces (in the case of the assay apparatus, the open arms of an elevated plus-maze). Compounds which have anti-anxiety activity increase exploratory activity of the rodents in the open arms of the elevated plus-maze. The EPM assay was run according to the procedure as described by Handley and Mithani (Naunyn. Schmied. Arch. Pharmacol., 327, 1-5, 1984).
Male Rj:NMRI mice, weighing 20-30 g (max. range per experiment=5 g) at the beginning of the experiments, were obtained from Elevage Janvier, 53940 Le Genest-Saint-Isle, France and used in the assay. The animals were delivered to the laboratory at least 5 days before the experiments during which time they were acclimatized to laboratory conditions. The mice were housed in groups of 10 in Macrolon cages (25×19×13 cm) on wood litter (Litalabo—SPPS, 95100 Argenteuil, France) with free access to food (Code 113—SAFE, 89290 Augy, France) and water until tested (or as indicated otherwise). The animal house was maintained under artificial lighting (12 hours) between 7:00 and 19:00 in a controlled ambient temperature of 21±3° C., and relative humidity between 30-80%.
The elevated plus-maze consisted of 4 arms of equal length and width (14×5 cm) arranged in the form of a plus sign (+). Two opposite arms were enclosed by 12 cm high walls (closed arms). The 2 other arms had no walls (open arms). The maze was raised 56 cm above the floor. A mouse was placed in the centre of the plus-maze and left to explore the maze for 5 minutes. The number of entries into the open and closed arms and the time spent in the open arms was recorded. Ten (10) mice were used for each study group. The test was performed blind.
(§1) Compound #8 was evaluated at 30 mg/kg, 60 mg/kg and 120 mg/kg doses, administered p.o. 60 minutes before the test, and compared with a vehicle control group. Compound #8 was homogenized and dispersed using a mortar and a pestle in 0.2% hydroxypropylmethylcellulose (HPMC) in distilled water, which served as the vehicle. As a positive control, Clobazam (16 mg/kg p.o.), was administered under the same experimental conditions. Clobazam as URBANYL® tablets (16 mg/kg p.o.) were dispersed in 0.2% hydroxypropylmethylcellulose (HPMC) in distilled water for administration. Each experiment therefore included 5 study groups of 10 mice each.
(§2) Data were analyzed by comparing groups treated with compound #8 with groups treated with vehicle control using unpaired Student's t tests.

mouse = assay: Four Plate Test, Mouse; format: in vivo; conditions: 32 mg/kg p.o. (positive control)
Excerpt: The Four Plate assay was run according to the procedure as described by Aron et al (Neuropharmacology, 10, 459-469, 1971). In this assay, the rodent experiences an electric shock upon crossing from one plate to another. Anxiolytics (such as benzodiazepines) increase the number of punished crossings.
Animals were placed individually in a white plastic enclosure containing a floor consisting of 4 metal plates connected to an electric shock generator (Apelex: Type 011346). The mouse was left to explore freely for 15 seconds. Then, every time the mouse crossed from one plate to another, it received a weak electric shock (2.5 mA, 1.5 s). The number of punished crossings were counted during a 1 minute test. Ten (10) mice were used for each study group. The test was performed blind.
as §1, with “(32” for “(16”, “Clobazam as URBANYL® tablets (16 mg/kg p.o.) were dispersed in 0.2% hydroxypropylmethylcellulose (HPMC) in distilled water for administration. Each experiment therefore included 5 study groups of 10 mice each.” left out
as §2

[1] = same experimental conditions, 10 mice

| Compound | melting point [°C] | Closed Arms Number of Entries, Mean ± S.E.M. (Male Rj:NMRI mice; [1]) | Open Arms Number of Entries, Mean ± S.E.M. (Male Rj:NMRI mice; [1]) | Open Arms Time Spent (sec), Mean ± S.E.M. (Male Rj:NMRI mice; [1]) [s] | Closed Arms Number of Entries, % change (Male Rj:NMRI mice; change from vehicle control) | Open Arms Number of Entries, % change (Male Rj:NMRI mice; change from vehicle control) | Open Arms Time Spent, % change (Male Rj:NMRI mice; change from vehicle control) | Number of Punished Crossings, Mean ± S.E.M. (mouse; [1]) | Number of Punished Crossings, % Change (mouse; change from vehicle control) |
| --- | --- | --- | --- | --- | --- | --- | --- | --- | --- |
| NS(=O)(=O)NCC1CCc2ccccc2O1 (stereo not drawn) | 100 to 101 |  |  |  |  |  |  |  |  |
| CN1C(=O)CC(=O)N(c2ccccc2)c2cc(Cl)ccc21 [CLOBAZAM, Clobazam] |  | 11.9 ± 1.5 (*) | 11.7 ± 1.1 (***) | 120.1 ± 13.1 | +59% | +350% | +567% | 9.9 ± 1.2 (***) | +154% |
